In patent US7960569B2, “Indole antagonists of P2Y1 receptor useful in the treatment of thrombotic conditions” (Bristol-Myers Squibb Company, priority 2006, dated 2011):
Structures can show the parent of a compound that is named as a salt.

Biological target: T1, cloned human P2Y1 receptors (Homo sapiens, UniProt P47900)
T1 construct: expressed in transfected cells
Assay: Binding Assay A: membrane binding assay, inhibition of [33P] 2MeS-ADP binding (WGA FlashPlates)
Excerpt: A membrane binding assay was used to identify inhibitors of [^33P] […] The cDNA clone for human P2Y1 was obtained from Incyte Pharmaceuticals and its sequence confirmed by established techniques (for a compendium of techniques used see Ausubel, F. et al. Current Protocols in Molecular Biology 1995 John Wiley and Sons, NY, N.Y.). The essential coding sequences were subcloned into pcDNA 3.1 (Invitrogen) to produce a P2Y1 expression construct. This construct was then transfected into the human embryonic kidney cell line HEK-293 and stable transfectants selected in Genetcin® (G418 sulfate; Life Technologies). […] Membranes were prepared by growing HEK293 #49 in 150 mm dishes in DMEM/10% FBS in the presence of 1 mg/ml G418 until cells were 80-90% confluent. Plates were then washed with cold (4° C.) D-PBS twice and cells harvested by scraping into 10 mL D-PBS. Cells were pelleted by centrifugation (1,000 g, 10 min, 4° C.) and the resulting pellet resuspended in Lysis Buffer (10 mM Tris (7.4), 5 mM MgCl2 containing Complete® protease inhibitor cocktail (Roche Cat #1873580) as recommended by the manufacturer). The suspension was then homogenized in a Dounce homogenizer (10-15 strokes; B pestle, on ice) and the homogenate spun at 1,000 g, 4° C., 5 min to pellet large debris. The supernatant was centrifuged at 150,000 g, 4° C., for 1 hour and the resulting membrane pellet resuspended in 0.5-1 mL of Buffer B (15 mM HEPES (7.4), 145 mM NaCl, 0.1 mM MgCl2, 5 mM EDTA, 5 mM KCl) and stored at −70° C. until used.
Binding reactions were performed in WGA FlashPlates (PerkinElmer Life Sciences, Cat # SMP105A) in a volume of 200 μL containing ˜45 fmol of P2Y1 receptor (5 μg of total protein), 0.5 nM [^33P] […] Reactions were allowed to proceed to completion at room temperature for 1 hour and then the aqueous solution aspirated. Plates were sealed and the residual [^33P] bound to the plate determined by scintillation counting.

T1 sequence (P47900 whole entry): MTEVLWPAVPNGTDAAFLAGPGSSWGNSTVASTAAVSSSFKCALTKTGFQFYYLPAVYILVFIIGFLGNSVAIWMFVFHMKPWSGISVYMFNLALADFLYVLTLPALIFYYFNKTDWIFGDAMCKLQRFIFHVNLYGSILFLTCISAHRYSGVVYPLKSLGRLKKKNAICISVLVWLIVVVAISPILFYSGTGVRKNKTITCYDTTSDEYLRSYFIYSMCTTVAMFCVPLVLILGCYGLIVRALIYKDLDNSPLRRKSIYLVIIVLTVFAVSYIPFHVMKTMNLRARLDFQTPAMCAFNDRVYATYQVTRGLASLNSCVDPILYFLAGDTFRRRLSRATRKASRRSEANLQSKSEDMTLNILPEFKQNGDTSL

| SMILES | Ki [nM] |
| --- | --- |
| CC(C)c1ccccc1-c1cn(C(=O)Nc2ccc(-c3ccccc3)cc2)c2ccccc12 [Example 27, N-(biphenyl-4-yl)-3-(2-isopropylphenyl)-1H-indole-1-carboxamide] | 144 |
| CC(C)c1ccccc1-c1cn(C(=O)Nc2ccc(N(C)C)cc2)c2ccccc12 [Example 12, N-(4-(dimethylamino)phenyl)-3-(2-isopropylphenyl)-1H-indole-1-carboxamide 2,2,2-trifluoroacetic acid salt] | 117 |
| CC(C)c1ccccc1-n1cc(C(=O)Nc2ccc(N3CCOCC3)cc2)c2ccccc21 [Example 53, 1-(2-isopropylphenyl)-N-(4-morpholinophenyl)-1H-indole-3-carboxamide 2,2,2-trifluoroacetic acid salt] | 1210 |
| CC(C)c1ccccc1-c1cn(C(=O)Nc2ccccc2)c2ccccc12 [Example 1, 3-(2-isopropylphenyl)-N-phenyl-1H-indole-1-carboxamide] | 75 |
| CN(C)Cc1ccccc1-c1cn(C(=O)Nc2ccc(OC(F)(F)F)cc2)c2ccccc12 [Example 33, 3-(2-((dimethylamino)methyl)phenyl)-N-(4-(trifluoromethoxy)phenyl)-1H-indole-1-carboxamide bis(2,2,2-trifluoroacetic acid) salt] | 1300 |
| CC(C)c1ccccc1-c1cn(C(=O)Nc2ccc(I)cc2)c2ccccc12 [Example 40, N-(4-iodophenyl)-3-(2-isopropylphenyl)-1H-indole-1-carboxamide] | 96 |
